According to ChEMBL document CHEMBL1136210, “Bone-targeted pyrido[2,3-d]pyrimidin-7-ones: potent inhibitors of Src tyrosine kinase as novel antiresorptive agents” (Bioorg Med Chem Lett, 2003):

Tests used:
Oryctolagus cuniculus = organism: Oryctolagus cuniculus; test: Inhibition of rabbit-osteoclast mediated resorption of dentine slices
[1] = Compound was tested for toxicity by the presence of tartrate resistant acid phosphatase (TRAP)-positive cell; Normal; format: functional
[2] = target: Proto-oncogene tyrosine-protein kinase Src (Homo sapiens, UniProt P12931); test: Inhibition of Src protein tyrosine kinase
Sequence of Proto-oncogene tyrosine-protein kinase Src (P12931 2-536 limits assumed): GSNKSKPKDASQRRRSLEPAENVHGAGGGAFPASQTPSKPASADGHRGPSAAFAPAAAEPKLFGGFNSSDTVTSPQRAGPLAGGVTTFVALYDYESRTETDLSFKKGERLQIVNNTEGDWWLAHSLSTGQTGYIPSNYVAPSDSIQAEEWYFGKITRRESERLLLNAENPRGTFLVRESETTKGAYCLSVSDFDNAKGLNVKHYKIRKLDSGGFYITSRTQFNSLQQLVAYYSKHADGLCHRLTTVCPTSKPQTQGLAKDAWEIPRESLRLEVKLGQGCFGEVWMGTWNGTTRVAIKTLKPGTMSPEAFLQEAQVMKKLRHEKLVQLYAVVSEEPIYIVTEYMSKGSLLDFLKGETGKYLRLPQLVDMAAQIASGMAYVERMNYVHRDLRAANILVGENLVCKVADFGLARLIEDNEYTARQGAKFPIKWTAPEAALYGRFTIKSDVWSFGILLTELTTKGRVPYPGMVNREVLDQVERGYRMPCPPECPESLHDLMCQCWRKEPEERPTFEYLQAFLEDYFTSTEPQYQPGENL

IC50 (Oryctolagus cuniculus)	IC50 [2]	SMILES	TRAP staining [1]
3000 nM	–	Cn1c(=O)c(-c2c(Cl)cccc2Cl)cc2cnc(Nc3ccc(P(=O)(O)CP(=O)(O)O)cc3)nc21	Not toxic
800 nM	–	CN(C)CCCn1c(=O)c(-c2c(Cl)cccc2Cl)cc2cnc(Nc3ccc(P(=O)(O)CP(=O)(O)O)cc3)nc21	Not toxic
–	16 nM	Cn1c(=O)c(-c2c(Cl)cccc2Cl)cc2cnc(Nc3ccccc3)nc21	–
4000 nM	–	Cn1c(=O)c(-c2c(Cl)cccc2Cl)cc2cnc(Nc3cccc(P(=O)(O)CP(=O)(O)O)c3)nc21	Not toxic
